Laboratory results as given in patent US11254907B2, “Fungal volatile organic compound enhances plant s growth characteristics” (The United States of America as represented by the …, priority 2018, dated 2022).

Experiments:
[1] = test system: peach rootstock 'Bailey-OP' (Prunus persica); assay: Root primordia induction from peach in vitro shoots on mLP with IBA; format: in vivo
Method: A two-step process was tested to induce roots from in vitro shoots and establish plants in the greenhouse. In vitro shoots of the peach rootstock ‘Bailey-OP’ (Prunus persica) of longer than 2 cm in height were first transferred to a modified Lepoivre LP medium (mLP) containing basal salts of LP medium (Quorin and Lepoivre, Acta Hort. 78:437-442, 1977) and a vitamin mixture composed of 1.0 mg/L thiamine-HCl, 1.0 mg/L nicotinic acid, 1.0 mg/L pyridoxine-HCl, 4.0 mg/L glycine, 0.2 mg/L biotin and 2.0 mg/L Ca-pathothenate (mLP) supplemented with various concentrations of indole-3-butyric acid (IBA) and cultured for two weeks to induce root primordia. The IBA concentrations ranged from 0.5 to 2.0 mg/L. Shoots with root primordia at the base were then taken out and separated into two groups. The first group was cultured on mLP medium without any growth regulators for continuous plant development as a control, whereas the second group was maintained on a similar growth regulator-free mLP medium but with a culture tube closure containing MVOC-emitting fungus of C. sp isolate TC09 (Accession No. NRRL 67603).

tobacco seedlings = assay: Polar auxin transport interference test (NPA in plant culture medium with MVOCs); format: in vivo, Nicotiana tabacum; settings: 10 μM NPA, 20 days
Method: In vitro containment conditions for fungal cultures were modified to utilize culture tube closure or cap (3×4 cm, diameter×length, closure for 25 mm culture tubes, Sigma C5791) in order to mitigate problems related to condensation build-up inside the filter-sealed microcentrifuge tubes that could suffocate growing fungus and reduce MVOC emission, as subsequently noticed. For each sterile closure cap, 5 ml semi-solid MS medium was added and 10 μl of conidial suspension at a density of 1×10^5 CFU per ml was subsequently introduced. The fungal culture in the closure was then placed in a Magenta™ GA7 vessel that contains tobacco seedlings. For controls, a blank culture cap was added. All experiments were repeated three times. Each involved three treated and untreated vessels, respectively, and three replicate plants for each vessel. Cultures were placed under light conditions with a 16-h photoperiod at 25° C. Plants were treated with 10 or 20 d of fungal exposure duration. Regardless of exposure duration used, plant growth was monitored and compared with controls without fungal cultures at the end of 20 d after introduction of fungal cultures. For polar auxin transport interference tests, 10 μM auxin transport inhibitor N-1-naphthylphthalamic acid (NPA) is incorporated in plant culture medium and used to assess plant response in the presence of MVOCs. […]

[2] = NPA as low as 5 μM; cited from earlier work

| Structure (SMILES) | root formation efficiency ([1]; 0.5 mg/L IBA) | root formation frequency ([1]; 1.0 mg/L IBA) | root induction efficiency ([1]; 1.5 mg/L IBA) | root induction efficiency ([1]; 2.0 mg/L IBA) | effect on root length, number of leaves and largest leaf length of C. sp treated plants (tobacco seedlings) | lateral root formation (tobacco seedlings) | effect on stimulatory effects of Fusarium oxysporum MVOCs on plant biomass increase [2] |
| --- | --- | --- | --- | --- | --- | --- | --- |
| O=C(O)CCCc1c[nH]c2ccccc12 [IBA, indole-3-butyric acid] | very low root formation efficiency | up to 70% | great reduction in root induction efficiency | less than 20% | – | – | – |
| O=C(O)c1ccccc1C(=O)Nc1cccc2ccccc12 [NPA, N-1-naphthylphthalamic acid] | – | – | – | – | remained similar | arrested lateral root formation | completely negating |
